Assay [1] deals with NREM sigma, EO and EC gamma absolute power. In words: Population PKPD modelling of EEG power versus model-predicted plasma concentration (NONMEM). The class given is in vivo, human. How it is done:
The pharmacokinetic/pharmacodynamic (PKPD) effects of administration a compound of formula (II) on EEG were also evaluated. The recording of the NREM sigma absolute power was reported as a single summary value of a single night of sleep following each dose on pre-specified days (baseline and Days 4, 8 and 12 for Example 11, Part A and Days 10, 17, 24, and 31 for Part B, as set forth in Tables 22 and 23, above. Each NREM sigma absolute power value was paired with a model predicted average plasma concentration (Cave) that corresponded to the 24-hour EEG recording period on the respective study day. For example, if the period of EEG recording for an individual was from 6 am on Day 4 to 6 am on Day 5, then the corresponding Cave was calculated as the average of the individual's model-predicted concentrations (sampled every 30 minutes) from that same time period. The resulting PKPD data were analyzed in a mixed-effects modelling framework using NONlinear Mixed Effects Modeling (NONMEM) software. The change from baseline NREM sigma absolute power was specified as the outcome and the primary explanatory variable was the Cave of a compound of formula (II).
The eyes open (EO) and eyes closed (EC) gamma absolute power for each individual was also estimated at specific time points across the study days.
The population PK model was used to generate Cave for NREM sigma absolute power and concentrations for EO and EC gamma absolute power. For NREM sigma absolute power, the Cave was computed for the final day of each dose level over the EEG collection interval. For EO and EC gamma absolute power, concentrations at 4 hours post-dose and 23.75 hours post-dose were generated on the final day of each dose level. The final population PKPD models for NREM sigma absolute power and EO and EC gamma absolute power were then used to generate corresponding EEG responses.

A further assay concerns the target T1, hCav3.1 (Homo sapiens, UniProt O43497).
T1 construct: expressed in transfected cells; host or cells: HEK-293 (cultured under G418 selection)
In words: PatchXpress patch clamp, voltage dependent block (half-inactivated state, V0.5). The format is cell-based. The conditions noted are these: for Inhibition of hCav3.1 peak current, voltage dependent block (percent inhibition), mean: half-inactivated state (V0.5). On the procedure:
(§1) The voltage dependence of calcium channel isoforms was determined by comparing the activity of resting (Tonic Block) and half-inactivated (Voltage Dependent Block) voltages across various concentrations of Formula (II). First, HEK-293 cells containing hCav3.1, hCav3.2, or hCav3.3 calcium channel isoforms were prepared by seeding at 2×10^6 cells per flask in culture for 2 days; the cells were then harvested at about 6×10^6 cells. Harvested cells were washed once in DPBS for approximately 30 minutes, and 1 mL of 1× (0.05%) Trypsin-EDTA was added, swirled, and allowed to sit on the cells for approximately 4 minutes. 10 mL of warmed DMEM high glucose media supplemented with 10% fetal bovine serum, 2 mM sodium pyruvate, 10 mM HEPES, and 400 μg/mL G418 was added, and the cells were triturated until a single cell suspension was […]. Cells were placed in a 250 mL centrifuge tube with 30 mL warmed media and gently rocked at 28° C. for approximately 1 hour. Cell aliquots of 5 mLs (1×10^6 cells) were then centrifuged at 100× for 2 minutes, and supernatant was removed. Next, 100 μl of external recording solution was added to the remaining cell pellet and triturated 20 times to achieve a single cell suspension.
(§2) Immediately prior to assay, Formula (II) was diluted with DMSO to 300× the designated final concentration. All studies were performed using the Molecular Devices PatchXpress automated patch clamp platform at room temperature.
(§3) Pharmacology was measured during Epoch 1. Percent inhibition was calculated as: 100*((([Step 2+Step 5]/2)−Step 3)/(Step 2+Step 5/2)), wherein Step 2 is the peak current measured at baseline, Step 5 is the current measured during the wash period, and Step 3 is the peak current measured during application of the compound. The average of the final 3 consecutive currents in each experimental procedure was used for all calculations. The concentration response curve was fit with a Hill equation to derive IC50, slope, minimum response, and maximum response fitting parameters.
(§4) To calculate the hCav3.1, hCav3.2, and hCav3.3 peak current from a half-inactivated state (voltage dependent block), currents were first evoked by depolarizing pulses to −25 mV (10 ms) from a non-inactivating holding potential (−120 mV) at a frequency of 0.1 Hz. After current amplitude became stable, the mid-point average of steady state inactivation was determined for each cell using a series of 9,900 ms conditioning steps to increasingly depolarize voltages (ranging from Vhold (−120 mV) to −40 mV) preceding a test pulse to −25 mV (10 ms) to establish the magnitude of inactivation. The holding command potential was then set to the voltage that produced approximately 50% inactivation (V0.5) using PatchXpress scripts. From this V0.5 potential, a voltage step to −25 mV (10 ms) was used to evoque peak current. The voltage was stepped to −120 mv (50 ms) to evoque tail currents and monitor cell integrity.
(§5) The effect of the compound on peak current amplitude was monitored using the voltage protocol described above and washed out after reaching steady state as determined by PatchXpress stability scripts. Washout was performed at the original holding potential of −120 mV to facilitate reversal of state-dependent interactions. Washout current for the calculation of inhibition was determined by resetting the holding potential to the previously determined half-inactivation potential (V0.5) and measuring peak current from this holding potential. Pharmacology was measured during Epoch 1, and percent inhibition was calculated as discussed above for tonic block.
A general note: Patch clamp records ionic current or voltage across a cell membrane.

In the next assay the target is T2, hCav3.2 (Homo sapiens, UniProt O95180).
T2 construct: expressed in transfected cells; host or cells: HEK-293 (cultured under G418 selection)
T2 sequence (O95180 whole entry): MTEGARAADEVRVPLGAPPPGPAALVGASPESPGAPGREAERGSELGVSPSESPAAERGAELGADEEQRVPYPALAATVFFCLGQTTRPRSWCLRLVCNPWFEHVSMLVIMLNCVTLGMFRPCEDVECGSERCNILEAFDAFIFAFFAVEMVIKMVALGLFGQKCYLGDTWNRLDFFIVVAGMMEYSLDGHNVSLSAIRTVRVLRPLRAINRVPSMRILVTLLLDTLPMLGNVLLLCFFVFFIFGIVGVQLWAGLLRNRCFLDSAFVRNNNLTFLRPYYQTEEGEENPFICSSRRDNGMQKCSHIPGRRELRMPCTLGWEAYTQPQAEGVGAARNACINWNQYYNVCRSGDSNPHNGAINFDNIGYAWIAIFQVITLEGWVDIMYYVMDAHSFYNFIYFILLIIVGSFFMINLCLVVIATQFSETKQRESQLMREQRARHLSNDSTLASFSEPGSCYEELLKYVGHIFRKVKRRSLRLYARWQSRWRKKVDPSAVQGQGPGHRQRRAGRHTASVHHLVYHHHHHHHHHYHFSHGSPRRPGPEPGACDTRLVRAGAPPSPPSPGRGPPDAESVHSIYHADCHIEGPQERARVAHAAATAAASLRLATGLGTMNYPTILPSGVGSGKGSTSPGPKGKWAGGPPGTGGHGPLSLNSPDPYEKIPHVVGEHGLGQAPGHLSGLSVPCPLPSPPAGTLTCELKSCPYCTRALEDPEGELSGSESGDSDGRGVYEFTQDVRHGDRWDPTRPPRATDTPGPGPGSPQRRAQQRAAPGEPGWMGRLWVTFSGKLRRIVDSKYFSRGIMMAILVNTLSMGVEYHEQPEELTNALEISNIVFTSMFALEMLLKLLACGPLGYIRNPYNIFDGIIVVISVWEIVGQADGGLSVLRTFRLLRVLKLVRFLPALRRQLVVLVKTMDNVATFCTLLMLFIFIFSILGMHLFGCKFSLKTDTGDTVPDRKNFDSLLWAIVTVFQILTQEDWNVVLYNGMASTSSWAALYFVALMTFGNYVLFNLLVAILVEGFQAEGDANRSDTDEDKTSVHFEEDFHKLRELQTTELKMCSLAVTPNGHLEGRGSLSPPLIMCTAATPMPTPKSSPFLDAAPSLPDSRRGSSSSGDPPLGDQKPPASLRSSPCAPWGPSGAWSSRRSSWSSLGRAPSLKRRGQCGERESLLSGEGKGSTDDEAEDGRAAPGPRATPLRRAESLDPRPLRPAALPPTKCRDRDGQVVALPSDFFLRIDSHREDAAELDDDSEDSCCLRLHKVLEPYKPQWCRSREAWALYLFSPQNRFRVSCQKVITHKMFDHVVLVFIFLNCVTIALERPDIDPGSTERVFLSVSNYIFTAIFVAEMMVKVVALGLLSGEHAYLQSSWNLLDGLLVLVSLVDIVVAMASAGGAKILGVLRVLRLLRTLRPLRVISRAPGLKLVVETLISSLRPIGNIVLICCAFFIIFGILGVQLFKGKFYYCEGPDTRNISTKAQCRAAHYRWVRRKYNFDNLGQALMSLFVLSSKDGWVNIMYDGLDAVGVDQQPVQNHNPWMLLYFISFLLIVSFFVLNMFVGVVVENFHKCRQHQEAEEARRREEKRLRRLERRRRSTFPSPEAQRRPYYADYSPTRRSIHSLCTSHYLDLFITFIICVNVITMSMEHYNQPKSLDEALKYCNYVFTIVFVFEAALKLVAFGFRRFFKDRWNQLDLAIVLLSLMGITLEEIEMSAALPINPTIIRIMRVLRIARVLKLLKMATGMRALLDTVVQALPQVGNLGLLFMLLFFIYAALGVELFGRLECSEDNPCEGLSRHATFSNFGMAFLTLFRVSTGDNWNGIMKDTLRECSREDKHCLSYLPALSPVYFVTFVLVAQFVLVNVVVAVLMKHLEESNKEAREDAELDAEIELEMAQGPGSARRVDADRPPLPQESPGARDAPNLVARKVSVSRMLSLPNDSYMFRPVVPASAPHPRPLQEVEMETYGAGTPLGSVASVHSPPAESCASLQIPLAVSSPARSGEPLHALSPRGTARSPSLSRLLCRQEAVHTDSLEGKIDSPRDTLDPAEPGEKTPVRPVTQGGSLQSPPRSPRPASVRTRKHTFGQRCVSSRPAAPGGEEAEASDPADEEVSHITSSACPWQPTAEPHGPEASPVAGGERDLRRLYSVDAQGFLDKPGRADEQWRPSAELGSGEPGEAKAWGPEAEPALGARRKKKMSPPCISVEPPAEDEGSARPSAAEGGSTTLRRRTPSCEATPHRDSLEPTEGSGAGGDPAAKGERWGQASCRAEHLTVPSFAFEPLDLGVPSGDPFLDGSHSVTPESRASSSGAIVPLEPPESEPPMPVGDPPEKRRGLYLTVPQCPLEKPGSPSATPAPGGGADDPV
The assay is described as above. The conditions noted are these: for Inhibition of hCav3.2 peak current, voltage dependent block (percent inhibition), mean: half-inactivated state (V0.5). The format is cell-based. On the procedure:
as §1, §2, §3, §4, §5

SMILES strings stand for the structures. Counter-ions that a name gives are not always drawn.

T1 sequence (O43497 whole entry): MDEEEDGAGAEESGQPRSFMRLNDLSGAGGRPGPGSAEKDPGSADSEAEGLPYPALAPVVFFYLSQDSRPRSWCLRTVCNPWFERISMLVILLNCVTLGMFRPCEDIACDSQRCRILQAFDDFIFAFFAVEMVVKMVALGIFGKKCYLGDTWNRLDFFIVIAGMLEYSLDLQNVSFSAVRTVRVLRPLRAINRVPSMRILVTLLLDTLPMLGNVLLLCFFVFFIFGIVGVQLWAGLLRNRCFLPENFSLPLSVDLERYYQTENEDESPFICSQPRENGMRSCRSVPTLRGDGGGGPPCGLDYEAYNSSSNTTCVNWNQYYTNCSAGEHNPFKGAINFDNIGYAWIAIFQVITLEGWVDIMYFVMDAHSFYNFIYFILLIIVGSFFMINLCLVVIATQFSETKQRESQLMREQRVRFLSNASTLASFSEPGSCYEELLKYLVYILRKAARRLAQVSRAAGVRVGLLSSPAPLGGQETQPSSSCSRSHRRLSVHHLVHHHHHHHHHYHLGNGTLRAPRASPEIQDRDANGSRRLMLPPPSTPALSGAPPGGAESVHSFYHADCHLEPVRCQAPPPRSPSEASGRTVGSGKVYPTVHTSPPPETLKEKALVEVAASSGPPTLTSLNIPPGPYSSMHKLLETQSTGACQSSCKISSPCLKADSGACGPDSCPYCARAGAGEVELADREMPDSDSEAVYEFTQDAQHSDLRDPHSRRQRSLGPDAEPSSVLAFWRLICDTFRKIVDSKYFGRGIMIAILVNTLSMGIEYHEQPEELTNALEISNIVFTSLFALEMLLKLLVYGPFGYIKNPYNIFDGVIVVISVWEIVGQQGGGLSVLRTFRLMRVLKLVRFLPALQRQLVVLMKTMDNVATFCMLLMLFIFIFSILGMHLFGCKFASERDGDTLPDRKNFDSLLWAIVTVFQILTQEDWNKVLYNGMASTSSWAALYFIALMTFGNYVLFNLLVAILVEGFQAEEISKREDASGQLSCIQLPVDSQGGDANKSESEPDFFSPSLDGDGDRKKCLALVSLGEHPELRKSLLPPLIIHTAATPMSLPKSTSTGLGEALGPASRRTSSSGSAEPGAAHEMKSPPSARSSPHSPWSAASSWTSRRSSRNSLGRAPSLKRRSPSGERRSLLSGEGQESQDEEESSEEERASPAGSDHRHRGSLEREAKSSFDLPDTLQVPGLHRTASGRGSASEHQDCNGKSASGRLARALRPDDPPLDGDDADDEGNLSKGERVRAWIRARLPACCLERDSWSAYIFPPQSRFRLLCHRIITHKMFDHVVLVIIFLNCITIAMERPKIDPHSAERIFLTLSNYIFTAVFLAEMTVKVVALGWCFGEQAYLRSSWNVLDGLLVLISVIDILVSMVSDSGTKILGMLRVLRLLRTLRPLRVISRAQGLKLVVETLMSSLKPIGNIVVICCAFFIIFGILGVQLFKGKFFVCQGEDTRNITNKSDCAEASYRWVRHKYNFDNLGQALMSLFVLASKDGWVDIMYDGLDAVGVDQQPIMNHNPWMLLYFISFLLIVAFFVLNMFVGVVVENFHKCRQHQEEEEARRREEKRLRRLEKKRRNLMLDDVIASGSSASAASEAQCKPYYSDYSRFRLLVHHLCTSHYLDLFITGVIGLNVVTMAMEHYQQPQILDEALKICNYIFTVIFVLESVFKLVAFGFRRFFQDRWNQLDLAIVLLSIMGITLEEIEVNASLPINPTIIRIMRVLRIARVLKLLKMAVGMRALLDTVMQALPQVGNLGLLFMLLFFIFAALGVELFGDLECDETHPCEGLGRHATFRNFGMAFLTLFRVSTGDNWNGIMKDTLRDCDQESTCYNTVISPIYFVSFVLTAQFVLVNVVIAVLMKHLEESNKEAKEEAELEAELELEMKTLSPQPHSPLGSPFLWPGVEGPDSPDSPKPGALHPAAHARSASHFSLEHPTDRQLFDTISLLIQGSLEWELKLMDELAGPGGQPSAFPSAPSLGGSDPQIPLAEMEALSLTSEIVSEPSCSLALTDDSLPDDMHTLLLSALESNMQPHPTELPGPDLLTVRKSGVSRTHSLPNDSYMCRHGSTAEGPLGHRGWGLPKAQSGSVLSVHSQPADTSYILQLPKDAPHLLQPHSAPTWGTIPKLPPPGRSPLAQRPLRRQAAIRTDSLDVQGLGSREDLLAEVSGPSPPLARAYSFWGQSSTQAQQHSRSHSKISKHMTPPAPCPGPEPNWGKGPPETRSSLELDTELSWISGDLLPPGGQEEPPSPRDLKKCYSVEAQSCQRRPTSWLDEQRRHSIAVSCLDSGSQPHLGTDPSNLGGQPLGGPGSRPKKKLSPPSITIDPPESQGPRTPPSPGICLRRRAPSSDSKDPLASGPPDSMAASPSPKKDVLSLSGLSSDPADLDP

Take `CC(C)(C)NC(=O)CN1CCC(CNC(=O)c2cc(F)cc(Cl)c2)CC1` [compound of formula (II), N-((1-(2-(tert-butylamino)-2-oxoethyl)piperidin-4-yl)methyl)-3-chloro-5-fluorobenzamide hydrochloride]: the “Cave at which maximum reduction in NREM sigma absolute power appeared to occur” value in assay [1] (model predicted average plasma concentration, titrated) is reported as “greater than 180 ng/mL”. Also, in assay [1] (titrated up to 120 mg), the “C(t) at which maximum reduction in EC gamma absolute power appeared to occur” value is greater than 300 ng/mL. Also, the “C(t) at which maximum reduction in EO gamma absolute power appeared to occur” value in assay [1] (titrated up to 120 mg) is on record as greater than 300 ng/mL. In addition, the “Inhibition of hCav3.1 peak current, voltage dependent block (percent inhibition), mean” value is 13.9 (12) on hCav3.1 (0.03 μm); 29.7 (14) on hCav3.1 (0.09 μm); 55.2 15) on hCav3.1 (0.27 μm); 73.8 (9) on hCav3.1 (0.91 μm); 84.6 (9) at hCav3.1 (2.74 μm); 86.0 (7) at hCav3.1 (9.13 μm). Besides, the “tonic block/voltage dependent block (TB/VDB) ratio” value is 3.8 at hCav3.1 (hCav3.1) and 2.0 on hCav3.2 (hCav3.2). Besides, the “Inhibition of hCav3.2 peak current, voltage dependent block (percent inhibition), mean” value was 16.6 (11) at hCav3.2 (0.03 μm); 31.2 (7) at hCav3.2 (0.09 μm); 48.4 (9) at hCav3.2 (0.27 μm); 78.8 (12) at hCav3.2 (0.91 μm); 91.6 (13) at hCav3.2 (2.74 μm).
